Laboratory results published in PubChem BioAssay (NCI).
Values joined by “and” are separate entries in the source; they are usually repeats but may differ in a detail not shown here. Equal values may be shown once.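 Interpolation was linear, between the two tested concentrations surrounding the appropriate level; five concentrations were tested over 48 hours in 96-well plates. GI50: concentration for 50% inhibition of growth. The concentration for full growth arrest is given as TGI.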

Columns and labels:
Experiment in all cases: growth of human tumour cells (NCI), 48 h
BT-549 breast = test system: BT-549 breast
NCI/ADR-RES ovarian = test system: NCI/ADR-RES ovarian
HL-60(TB) leukemia = test system: HL-60(TB) leukemia
K-562 leukemia = test system: K-562 leukemia
MALME-3M melanoma = test system: MALME-3M melanoma
OVCAR-3 ovarian = test system: OVCAR-3 ovarian
SNB-19 CNS = test system: SNB-19 CNS
UO-31 renal = test system: UO-31 renal
UACC-257 melanoma = test system: UACC-257 melanoma
HOP-92 NSCLC = test system: HOP-92 NSCLC

| SMILES | GI50 (BT-549 breast) [µM] | TGI (BT-549 breast) [µM] | GI50 (NCI/ADR-RES ovarian) [µM] | TGI (NCI/ADR-RES ovarian) [µM] | GI50 (HL-60(TB) leukemia) [µM] | TGI (HL-60(TB) leukemia) | GI50 (K-562 leukemia) [µM] | TGI (K-562 leukemia) | GI50 (MALME-3M melanoma) [µM] | TGI (MALME-3M melanoma) | GI50 (OVCAR-3 ovarian) [µM] | TGI (OVCAR-3 ovarian) | GI50 (SNB-19 CNS) [µM] | TGI (SNB-19 CNS) | GI50 (UO-31 renal) [µM] | TGI (UO-31 renal) | GI50 (UACC-257 melanoma) [µM] | TGI (UACC-257 melanoma) [µM] | GI50 (HOP-92 NSCLC) [µM] | TGI (HOP-92 NSCLC) |
| --- | --- | --- | --- | --- | --- | --- | --- | --- | --- | --- | --- | --- | --- | --- | --- | --- | --- | --- | --- | --- |
| CCCCCCCCNc1cc2c3c(c1)CCCN3CCC2 | 2.28 | 12.3 | 19.7 | > 100 | 0.33 | 1.85 µM | 0.433 | > 100 µM | 2.05 | 8.53 µM | 1.55 | 5.81 µM | 3.29 | 19.4 µM | 3.17 | 17.7 µM | 1.03 | 6.71 |  |  |
| C=C(C)C(O)CCC1(C)C=Cc2c(c(C)cc3c2[nH]c2ccccc23)O1 (configuration not stated) | 12.9 | 25.5 |  | 22.6 | 4.24 | 25 µM and 19.9 µM | 2.78 | 24.6 µM and 7.13 µM |  | 25 µM and 24.7 µM | 10.3 | 24 µM and 22 µM | 11.5 | 25 µM and 23.6 µM | 12 | 25 µM and 27.3 µM |  | 20.5 | 10.3 | 25 µM and 22.8 µM |
| COc1ccc(-c2cc3c(c4cc(OC)ccc24)C(=O)OC3=O)cc1 |  | > 100 |  | > 100 |  | > 100 µM |  | > 100 µM |  | > 100 µM |  | > 100 µM |  | > 100 µM |  | > 100 µM |  | > 100 |  | > 100 µM |
| O.O.[NH-]C1(C(=O)O)CCCC1.[NH-]C1(C(=O)O)CCCC1.[Ni+2] | > 100 | > 100 |  | > 100 |  | > 100 µM |  | > 100 µM |  | > 100 µM |  | > 100 µM |  | > 100 µM |  | > 100 µM |  | > 100 |  | > 100 µM |
| CCOC(=O)c1c(C)nc2c(c1N)CC(=O)N2Cc1ccc(OC)cc1 | 6.3 | > 100 | 4.96 | > 100 | > 100 | > 100 µM | > 100 | > 100 µM | > 100 | > 100 µM | 6.24 | > 100 µM | 4.87 | > 100 µM | > 100 | > 100 µM |  |  | 2.29 | 6.5 µM |
| N=C1C(c2nc3ccccc3s2)=C(O)CN1c1ccc(F)c(Cl)c1 | 30.2 | > 100 | 26.9 | 80.6 | > 100 | > 100 µM | 31.1 | > 100 µM |  |  | 17.7 | 60.4 µM | 21.5 | 85.7 µM | 14.7 | 35.8 µM | 22.9 | > 100 | 12 | 37.5 µM |
| C=CCOc1cc(NC(=S)c2ccoc2C)ccc1OC |  | > 100 |  | > 100 |  | > 100 µM |  | > 100 µM |  | > 100 µM |  | > 100 µM |  | > 100 µM |  | > 100 µM |  | > 100 |  | > 100 µM |
| CN(CCO)CC[C@H](CSc1ccccc1)Nc1ccc(S(=O)(=O)NC(=O)c2ccc(N3CCC([C@@H](O)c4ccccc4-c4ccc(Cl)cc4)CC3)cc2)cc1S(=O)(=O)C(F)(F)F | 2.69 | 11 | > 100 | > 100 | 0.886 | 8.1 µM | 3.4 | > 100 µM | 2.48 | 8.55 µM | 3.71 | 13 µM | 2.77 | 8.57 µM | > 100 | > 100 µM | 4.85 | 30.6 | 0.0415 | 0.387 µM |
| O=c1[nH]nnc2c1ncn2C1OC(CO)C(O)C1O (configuration not stated) | > 100 | > 100 | 7.74 | > 100 | 1.39 | 83.3 µM | 2.26 | > 100 µM | 7.25 | > 100 µM | 7.75 | > 100 µM | > 100 | > 100 µM | 3.18 | > 100 µM | 14.1 | > 100 |  |  |
| OC(Cc1ccncc1)C(Cl)(Cl)Cl (configuration not stated) | > 100 | > 100 | > 100 | > 100 | 0.152 | 60.1 µM | > 100 | > 100 µM | > 100 | > 100 µM | 17.4 | > 100 µM | > 100 | > 100 µM | > 100 | > 100 µM | > 100 | > 100 | 0.109 | > 100 µM |
| O=C(Oc1cccc(F)c1OC(=O)c1cccc(O)c1)c1cccc(O)c1 | 24.4 | > 100 | 10.3 | 77.6 | 4.28 | 72.3 µM | 38 | > 100 µM | > 100 | > 100 µM | 4.82 | 45.7 µM | 99.6 | > 100 µM | 5.56 | > 100 µM | 39.8 | > 100 | 46.6 | > 100 µM |
| CCN1C(=O)N(CC)C2C1NN=c1s/c(=C\c3cccc(F)c3)c(=O)n12 (configuration not stated) | 0.209 |  | 0.059 | > 100 | 0.0582 | 0.46 µM | 0.041 | > 100 µM | 0.429 | > 100 µM | 0.17 | > 100 µM | 0.263 | > 100 µM | 0.96 | > 100 µM | 30 | > 100 | 1.44 | > 79.8 µM |
| COc1ccc(/C=C/C(=O)c2cc(OC)c(OC)c(OC)c2)cc1OCc1cn(Cc2ccc(F)cc2)nn1 | 3.45 | 27.7 | 2.99 | > 100 | 3.31 | 9.07 µM | 3.6 | > 100 µM | 72.5 | > 100 µM | 3.41 | > 100 µM | 4.42 | > 100 µM | 4 | 79.8 µM | 4.9 | > 100 |  |  |
